Data from ChEMBL document CHEMBL4425137, “Selective 5-HT2C receptor agonists: Design and synthesis of pyridazine-fused azepines” (Bioorg Med Chem Lett, 2016).

Columns and labels:
[1] = human, microsomes
Description: (§1) Intrinsic clearance in human liver microsomes

5-HT2B receptor = 5-HT2B receptor (Homo sapiens, UniProt P41595); test: in vitro
Description: (§2) Agonist activity at recombinant human 5-HT2B receptor transfected in CHOK1 cells assessed as calcium mobilization at 10 uM by FLIPR assay

MDR1 = test: in vitro; conditions: dog, MDCK-MDR1, Ratio
Description: Efflux ratio of permeability from basolateral to apical side over apical to basolateral side in MDCK cells expressing MDR1

in vitro [2] = conditions: human, liver microsomes
Description: as §1

physchem = conditions: octanol/water
Description: Lipophilicity, log D of the compound

[3] = molecular target: T1, 5-hydroxytryptamine receptor 2C (Homo sapiens, UniProt P28335)
T1 sequence (P28335 whole entry): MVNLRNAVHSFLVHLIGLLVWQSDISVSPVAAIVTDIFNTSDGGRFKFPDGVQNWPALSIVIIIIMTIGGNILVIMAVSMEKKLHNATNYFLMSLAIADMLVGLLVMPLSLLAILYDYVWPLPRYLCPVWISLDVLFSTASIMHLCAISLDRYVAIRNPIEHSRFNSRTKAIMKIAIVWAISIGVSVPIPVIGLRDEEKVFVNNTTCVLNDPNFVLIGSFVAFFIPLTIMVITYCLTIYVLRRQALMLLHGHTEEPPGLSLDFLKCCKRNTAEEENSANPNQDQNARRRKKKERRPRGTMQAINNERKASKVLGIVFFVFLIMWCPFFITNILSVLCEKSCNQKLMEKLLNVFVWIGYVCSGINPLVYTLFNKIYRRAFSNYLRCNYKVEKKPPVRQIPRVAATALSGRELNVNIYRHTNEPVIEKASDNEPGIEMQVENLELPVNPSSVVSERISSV
Description: Agonist activity at recombinant human 5-HT2C receptor transfected in CHOK1 cells assessed as calcium mobilization by FLIPR assay

[4] = molecular target: T1, 5-hydroxytryptamine receptor 2C; test: biochemical
Description: Displacement of [3H]-mesulergine from recombinant human 5-HT2C receptor transfected in Swiss mouse 3T3 cells after 150 mins by scintillation proximity assay

in vitro [5] = conditions: dog, MDCK, permeability
Description: Permeability in RRCK cells

[6] = molecular target: T2, 5-hydroxytryptamine receptor 2B (Homo sapiens, UniProt P41595); test: Agonist activity at recombinant human 5-HT2B receptor transfected in CHOK1 cells assessed as calcium mobilization by FLIPR assay; type: cell-based
[7] = molecular target: T2, 5-hydroxytryptamine receptor 2B; conditions: 10 µM
Description: as §2

[8] = dog, mdckii-le
Description: Permeability in RRCK cells

Sequence of 5-HT2B receptor (P41595 whole entry): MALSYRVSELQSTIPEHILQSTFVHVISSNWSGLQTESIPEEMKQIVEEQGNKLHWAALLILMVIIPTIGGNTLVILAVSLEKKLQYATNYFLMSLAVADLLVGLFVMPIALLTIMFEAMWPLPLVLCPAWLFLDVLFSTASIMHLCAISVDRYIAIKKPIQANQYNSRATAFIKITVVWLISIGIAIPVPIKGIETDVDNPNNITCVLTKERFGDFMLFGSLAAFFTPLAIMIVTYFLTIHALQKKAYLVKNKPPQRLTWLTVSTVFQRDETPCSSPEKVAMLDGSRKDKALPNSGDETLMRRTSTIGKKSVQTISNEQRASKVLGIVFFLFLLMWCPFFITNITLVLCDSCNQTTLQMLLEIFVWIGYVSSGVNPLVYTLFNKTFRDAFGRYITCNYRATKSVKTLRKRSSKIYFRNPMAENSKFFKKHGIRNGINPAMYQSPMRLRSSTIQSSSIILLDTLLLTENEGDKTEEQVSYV
T2 sequence (P41595 whole entry): as above

Compound | CLH [1] | Emax at 10 µM (5-HT2B receptor) | efflux ratio (MDR1) | microsomal CLint (in vitro [2]) | logD (physchem) | EC50 [3] | Ki [4] | Papp (in vitro [5]) | EC50 [6] | Emax [7] | permeability [8]
c1ccc(Cc2ncc3c(n2)CCNCC3)cc1 | < 8000 µL/min/mg |  |  |  |  |  |  |  |  |  | 
c1ccc(Cc2nnc3n2CCNCC3)cc1 | < 8000 µL/min/mg | 0% | 1.3 |  | -0.3 | > 10000 nM | > 10000 nM | 2 ×10⁻⁶ cm/s |  |  | 
Cc1c(Cc2ccccc2)nnc2c1CCNCC2 |  |  | 1.9 | < 8 µL/min/mg |  | 220 nM | 520 nM | 14 ×10⁻⁶ cm/s |  |  | 
FC(F)(F)c1cccc(Cc2cc3c(nn2)CCNCC3)c1 |  | 57% | 1.7 | < 7 µL/min/mg | 0.9 | 750 nM | 250 nM | 13 ×10⁻⁶ cm/s | 450 nM |  | 
O=c1[nH]c2c(nc1Cc1ccccc1)CCNCC2 | < 8000 µL/min/mg | 24% | 3 |  | -0.1 | 70 nM | 110 nM |  |  |  | 
O=c1cc2c(nn1Cc1ccccc1)CCNCC2 | < 7000 µL/min/mg | 48% | 1 |  | 0.3 | 30 nM | 10 nM | 13 ×10⁻⁶ cm/s |  |  | 
c1ccc(Cn2cc3c(n2)CCNCC3)cc1 | < 7000 µL/min/mg | 3% | 1 |  | 0.1 |  | 2700 nM | 13 ×10⁻⁶ cm/s |  |  | 
O=c1[nH]n(Cc2ccccc2)c2c1CCNCC2 | < 7000 µL/min/mg | 0% | 1.2 |  | -0.1 | > 10000 nM |  | < 1 ×10⁻⁶ cm/s |  |  | 
O=c1c2c([nH]n1Cc1ccccc1)CCNCC2 |  | 0% |  |  | -0.5 | > 10000 nM |  | < 1 ×10⁻⁶ cm/s |  |  | 
CC(c1ccccc1)c1cc2c(nn1)CCNCC2 (stereo in doubt; 15g) |  | 36% | 1.8 | < 8 µL/min/mg | 0.4 | 190 nM | 200 nM | 13 ×10⁻⁶ cm/s |  |  | 

The remaining lines, values ahead:

CLH [1] | Emax at 10 µM (5-HT2B receptor) | efflux ratio (MDR1) | microsomal CLint (in vitro [2]) | logD (physchem) | EC50 [3] | Ki [4] | Papp (in vitro [5]) | EC50 [6] | Emax [7] | permeability [8] | Compound
 | 64% | 1.2 | < 7 µL/min/mg | 0.2 | > 10000 nM | 450 nM | 14 ×10⁻⁶ cm/s |  |  |  | Fc1ccc(Cc2cc3c(nn2)CCNCC3)cc1
 | 40% | 1.9 | 9 µL/min/mg | 0.1 | > 10000 nM | 550 nM | 16 ×10⁻⁶ cm/s |  |  |  | COc1ccccc1Cc1cc2c(nn1)CCNCC2
 | 29% | 1 | < 7 µL/min/mg | 0 | 130 nM | 80 nM | 14 ×10⁻⁶ cm/s |  |  |  | c1ccc(Cc2cc3c(nn2)CCNCC3)cc1
 | 41% | 1.1 | < 7 µL/min/mg | 0.7 | 310 nM | 200 nM | 15 ×10⁻⁶ cm/s | 800 nM |  |  | Clc1ccccc1Cc1cc2c(nn1)CCNCC2
 | 63% | 1.3 | < 7 µL/min/mg | 0.8 | 310 nM | 120 nM | 13 ×10⁻⁶ cm/s | 410 nM |  |  | Clc1ccc(Cc2cc3c(nn2)CCNCC3)cc1
 |  |  |  |  | 110 nM | 170 nM |  |  | 55% | 14 ×10⁻⁶ cm/s | CC(c1ccccc1)c1cc2c(nn1)CCNCC2 (stereo in doubt; 15h)
